# Assay results published in patent publication US20240058268A1, “METHODS OF TREATING SKIN DISORDERS” (priority 2021, published 2024).
# Legend:
# [1] = system: acne papule biopsies, gene sets; experiment: Gene set enrichment analysis (FGSEA, hallmark and reactome gene sets); format: in vivo, human; settings: inflammatory response, TNFA signaling via NF-kB, neutrophil degranulation, chemokines and receptors; collagen degradation, extracellular matrix degradation/organization
# Method: Functional and network analysis were generated with the Ingenuity Pathway Analysis software (QIAGEN® Inc., qiagenbioinformatics.com/products/ingenuity-pathway-analysis), and with Open Targets (opentargets.org/). IPA was used to identify canonical pathways, diseases and functions, and gene networks related to differentially expressed genes in acne lesions and post-lesional skin after treatment with trifarotene or vehicle. In addition, gene set enrichment analysis was performed with the R package FGSEA (version 1.12.0) using the hallmark and reactome gene sets.
# [2] = system: cell types in skin biopsies (macrophage subsets, B cells, melanocytes, venular cells); experiment: Cell type scoring (cell-type gene signature expression scores in biopsies); format: in vivo, human
# Text: Single-Cell Analysis and Cell Marker Definition: Single-cell RNAseq data from Hughes et al. was used to determine the major cell types present in skin biopsies and the associated cell markers. Acne and normal samples from GSE150672 were downloaded and analyzed using the Seurat package. Data were normalized, scaled, and log-transformed. The most variable genes were selected based on their expression and dispersion. To reduce dimensionality, principal component analysis (PCA) was applied. The first eight principal components were used to cluster the cells using the graph-based approach FindClusters function in Seurat, with a resolution parameter of 0.4. Graphical representation of cell clusters was achieved using UMAP. A combination of known markers and differentially expressed genes was used to characterize cell clusters. Major cell type markers retained for scoring analysis included: B cells: MS4A1, CD79A; Fibroblasts: DCN, COL6A2, APOD, CFD, IGFBP5, COL1A2, COL1A1, COL3A1; Keratinocytes: KRT5, KRT1, KRT14, KRT15, S100A2, KRT6A, HOPX, KRT10, DSP; Langerhans cells: CD207; Mast cells: CPA3, IL1RL1, CTSG, TPSAB1, GATA2; Melanocytes: MLANA, MITF, PMEL, DCT; Myeloid cells: CD68, CTSS; Schwann cells: SCN7A; T cells: CD3D, TRBC2, IL7R, PTPRC, CXCR4; Venular cells: SELE, CD93, TM4SF1, A2M, RCAN1; Vascular smooth muscle cells (VSMC): TAGLN, RGS5, MYH11, ACTA2, MYL9.
# Macrophage Gene Signatures: Gene markers specific to each class of macrophage were derived from the literature. For M0, M1 and M2 macrophages, the markers described in Newman et al. (Robust enumeration of cell subsets from tissue expression profiles, Nat Methods, 12:453-7, 2015) were used. For SPP1 activated macrophages, the markers from Morse et al. (Proliferating SPP1/MERTK-expressing macrophages in idiopathic pulmonary fibrosis. Eur Respir J., 54:1802441) were used. Final markers were as listed. M0 macrophage: ACP5, BHLHE41, C5AR1, CCDC102B, CCL22, CCL7, COL8A2, CSF1, CXCL3, CXCL5, CYP27A1, DCSTAMP, GPC4, HK3, IGSF6, MARCO, MMP9, NCF2, PLA2G7, PPBP, QPCT, SLAMF8, SLC12A8, TNFSF14, VNN1. M1 macrophage: ACHE, APOBEC3A, APOL3, APOL6, ARRB1, CCL19, CCL5, CCR7, CD38, CD40, CHI3L1, CXCL10, CXCL11, CXCL13, CXCL9, CYP27B1, DHX58, HESX1, IDO1, IFI44L, IL2RA, KIAA0754, KYNU, LAG3, LAMP3, LILRA3, LILRB2, NOD2, PLA1A, PTGIR, RASSF4, RSAD2, SLAMFI, SLC2A6, SOCS1, TLR7, TNFAIP6, TNIP3, TRPM4. M2 macrophage: AIF1, ALOX15, CCL13, CCL14, CCL23, CD209, CD4, CFP, CLEC10A, CLEC4A, CRYBB1, FES, FRMD4A, FZD2, GSTT1, HRH1, HTR2B, MS4A6A, NME8, NPL, P2RY13, PDCD1LG2, RENBP, WNT5B. SPP1 macrophage: MERTK, CD14, SPP1, CD68, LYZ.
# Cell Type Scoring: Each cell type gene signature was used to define a cell type average gene expression in each of our clinical study samples, calculated as the average of the log 2 expression values of these markers. Boxplots were used to visualize the distribution of cell type gene expression scores between clinical groups. Statistical significance was assessed using Wilcoxon rank sum test. Graphs were generated using the ggpubr data visualization library.
compound,measurement,setting,value
"CC(C)(C)c1cc(-c2cc(-c3ccc(C(=O)O)cc3)ccc2OCCO)ccc1N1CCCC1 [Trifarotene, 3″-tert-Butyl-4′-(2-hydroxy-ethoxy)-4″-pyrrolidin-1-yl-[1,1′,3′,1″ ]terphenyl-4-carboxylic acid]",gene set enrichment: inflammatory modules and tissue remodeling gene sets,[1],downregulates
same,venular cells,[2]; following trifarotene treatment,trend toward a decrease
same,"M0, M1 and M2 macrophages",[2]; spontaneously resolved vs trifarotene treated biopsies,not significantly different
same,increase in melanocytes,[2]; trifarotene treated vs spontaneously resolved acne lesions,greater in the trifarotene treated samples
same,B cell frequencies,[2]; trifarotene treatment vs. spontaneous resolution,greater impact in reducing B cell frequencies
same,frequencies of SPP1+ macrophages,"[2]; trifarotene treatment vs. spontaneously resolved acne papules, P=0.040",significantly reduced
